{"source": "patent US8883856B2", "about": "“Compositions and methods for the treatment of inflammatory diseases using topoisomerase inhibitors” (priority 2000, dated 2014)", "key": {"neutrophils [1]": {"test_system": "neutrophils", "assay": "Neutrophil apoptosis, agarose gel DNA laddering", "assay_type": "cell-based, human", "from_the_text": "The inflammation associated with many forms of arthritis is thought to arise from the presence of large numbers of immune cells, such as neutrophils, in the synovial joints of humans. The extended inflammation associated with crystal induced arthritis arises from the interaction of neutrophils with crystals in the synovial joint. One reason the extended duration of the inflammation in this disease may be due to the inhibition of neutrophil apoptosis by crystals. This inhibition may result in the neutrophils remaining in the joint for extended periods. Compounds that overcome this crystal induced suppression of neutrophil apoptosis therefore allow the more rapid clearance of these cells from the joint with the appropriate abatement of inflammation. The process of apoptosis involves the endonuclease driven cleavage of DNA into fragments which may be visualized as a ladder of bands in an agarose gel electrophoresis experiment. Other assays that may be used include caspase 3 quantitation or measurements of cytoplasmic DNA concentration. […] Agents that inhibit caspase activation levels or reduce cytoplasmic DNA are pro-survival (potentially inflammatory) and agents that promote are pro-apoptotic and anti-inflammatory. The use of these methods and their role in neutrophil affected inflammation is described in detail in Tudan et al. J Rheumatol. 27 p 2463-72. 2000. […]"}, "caspase 3": {"test_system": "caspase 3", "assay": "Caspase 3 activation in neutrophils (caspACE assay system)", "assay_type": "cell-based, human", "from_the_text": "The inflammation associated with many forms of arthritis is thought to arise from the presence of large numbers of immune cells, such as neutrophils, in the synovial joints of humans. The extended inflammation associated with crystal induced arthritis arises from the interaction of neutrophils with crystals in the synovial joint. One reason the extended duration of the inflammation in this disease may be due to the inhibition of neutrophil apoptosis by crystals. This inhibition may result in the neutrophils remaining in the joint for extended periods. Compounds that overcome this crystal induced suppression of neutrophil apoptosis therefore allow the more rapid clearance of these cells from the joint with the appropriate abatement of inflammation. The process of apoptosis involves the endonuclease driven cleavage of DNA into fragments which may be visualized as a ladder of bands in an agarose gel electrophoresis experiment. Other assays that may be used include caspase 3 quantitation or measurements of cytoplasmic DNA concentration. […] Agents that inhibit caspase activation levels or reduce cytoplasmic DNA are pro-survival (potentially inflammatory) and agents that promote are pro-apoptotic and anti-inflammatory. The use of these methods and their role in neutrophil affected inflammation is described in detail in Tudan et al. J Rheumatol. 27 p 2463-72. 2000.\nMethods: Agarose gel banding/laddering of 180 base pairs: Neutrophils were separated from fresh human blood by standard methods (dextran sedimentation and ficoll paque centrifugation) and suspended in buffer at a concentration of 1×10^6 cells/ml. The cells were then incubated with crystals of calcium pyrophosphate dihydrate (CPPD) for 1 hours at 37° C. The cells were then incubated with or without camptothecin (0.1 uM) for 4 hours at 37° C. Neutrophil aliquots (1×10^6 cells) from different conditions were resuspended in 480 μl of lysis buffer (0.6% SDS, 10 mM Tris, 1 mM EDTA (pH 7.0)) and after vigorous mixing were allowed to sit on ice for 20 min after addition of 120 μl of 5M NaCl. In caspase 3 and DNA fragmentation assays a milder detergent (Triton) was used to lyse only the plasma membrane of the cells so that cytoplasmic contents (caspase 3 or DNA fragments) could be assayed. Samples were sedimented at 14,000 rpm at 4° C. for 20 min. The pellet was dried and resuspended in phenol:chloroform. Four hundred fifty μl of the upper phase was added to a new tube, which was then charged with 950 μl of […] and held at −20° C. for 10 min. The DNA was sedimented at 14,000 rpm (4° C.) and carefully washed in 75% ethanol without disturbing the pellet. The DNA was dried at 37° C. and then resuspended in 20 μl sample buffer (50% TBE with 1 μl of 1 ng/ml RNase A (Pharmacia)). The samples were vortexed and allowed to stand at 37° C. for 10 min. Five μl of loading dye (20% Ficoll Paque (Pharmacia), 0.1% bromophenol blue, 0.1% xylene cyanole) was added. Electrophoresis was carried out in 2% agarose at 80 mA, and the gel was then stained with ethidium bromide (Pharmacia) and photographed under U.V. illumination.\nCaspase 3 activation was assayed using a commercial kit for this enzyme (caspACE assay system, Promega Scientific) and cyotplasmic DNA was assayed using a commercial kit (Cell death detection ELISA-Boehringer—Mannheim)."}, "[2]": {"assay": "Perivascular injection of polymeric paste at the rat carotid artery", "assay_type": "in vivo, Wistar rats", "conditions": "1% loading in 40% Triblock / 60% MePEG350 paste, 0.1 to 0.2 ml", "from_the_text": "Wistar rats weighing 400 g to 500 g were anesthetized with halothane. A vertical incision was made over the trachea and the left external carotid artery was exposed. Connective tissue around the left common carotid artery was left untouched. Two ligatures were placed around the external carotid artery and an arteriotomy was made between them. A 2 French Fogarty balloon was introduced into the external carotid artery and pushed into the left common carotid artery and the balloon was inflated with saline. The balloon was passed up and down the entire length of the carotid artery three times to stretch the vessel and denude the endothelium. The balloon was removed and the ligatures tied off on the external carotid artery. Camptothecin (1% loading) in a polymeric paste (40% Triblock (Angiotech pharmaceuticals) and 60% Methoxypolyethylene glycol (MePEG350)) or the carrier paste alone was injected through a 24 G angiocatheter between a distal segment of the common carotid artery and the surrounding connective tissue. Typically, 0.1 to 0.2 ml of paste was applied around the artery in 4 injections in order to cover the whole circumference of the vessel on a length of approximately 1 cm. The wound was then closed and the animals recovered."}, "neutrophils [3]": {"test_system": "neutrophils", "assay": "Neutrophil superoxide anion generation (cytochrome c reduction)", "assay_type": "cell-based, human", "conditions": "CPPD crystals or fMLP", "experimental": "Superoxide anion concentrations were measured using the superoxide dismutase inhibitable reduction of cytochrome c assay. Twenty five mg of crystals or fMLP (final concentration 1 uM with cytochalasin B at 0.5 uM) were placed in 1.5 mL capped Eppendorf tubes and warmed to 37° C. To the tubes were added 0.5 mL of cells at 37° C. and ferricytochrome c (horse heart, type 3) (final concentration 1.2 mg/mL) and the cells were activated by shaking the capped tubes. At appropriate times, tubes were centrifuged at 10,000×g for 10 seconds and the supernatant collected for spectrophotometric assay at 550 nm. Control tubes were set up under the same conditions with the inclusion of superoxide dismutase at 600 units per mL. Plumbagin inhibited the generation of superoxide anions from neutrophils activated by both CPPD crystals or fMLP as shown in FIG. 3."}, "neutrophils [4]": {"test_system": "neutrophils", "assay": "Neutrophil degranulation (myeloperoxidase release)", "assay_type": "cell-based, human", "conditions": "CPPD crystals and fMLP", "experimental": "Eppendorf tubes containing either 25 mg of CPPD or 1 uM fMLP (with 0.5 uM cytochalasin B) were maintained at 37° C. To the tubes were added 0.5 mL of cells at 37° C. followed by shaking to initiate the reactions. At appropriate times, tubes were centrifuged at 10,000× g for 10 s and 0.4 mL of supernatant was stored at −20° C. for later assay. Myeloperoxidase (MPO) activity was measured by the increase in absorbance at 450 nm that accompanies the oxidation of o-dianisidine. Dianisidine (7.8 mg) was dissolved in 100 mL of 0.1 M citrate buffer, pH 5.5 and to a 1 mL cuvette were added 0.89 mL of the dianisidine solution, followed by […], […] and […]. MPO activity was determined from the change in absorbance (450 nm) per minute, (ΔA450), using the following relationship: Dianisidine oxidation (nmol/min)=50 ΔA450"}}}
{"smiles": "CC[C@@]1(O)C(=O)OCc2c1cc1n(c2=O)Cc2cc3ccccc3nc2-1", "note": "[camptothecin]", "values": [{"measurement": "apoptosis in neutrophils first incubated with CPPD crystals", "setting": "neutrophils [1]; CPPD crystals 1 hour, then drug 0.1 uM 4 hours", "value": "extensive apoptosis"}, {"measurement": "DNA laddering (apoptosis) in neutrophils", "setting": "neutrophils [1]; drug alone, 0.1 uM, 4 hours", "value": "extensive DNA laddering"}, {"measurement": "caspase 3 activation in neutrophils", "setting": "caspase 3", "value": "induced high levels of caspase 3 activation"}, {"measurement": "adverse effects of perivascular paste injection", "setting": "[2]", "value": "no adverse effects noted in any animal"}]}
{"smiles": "CC1=CC(=O)c2c(O)cccc2C1=O", "note": "[plumbagin]", "values": [{"measurement": "generation of superoxide anions from activated neutrophils", "setting": "neutrophils [3]", "value": "inhibited"}, {"measurement": "neutrophil degranulation (myeloperoxidase release)", "setting": "neutrophils [4]", "value": "inhibited"}]}
{"smiles": "COc1cc([C@@H]2c3cc4c(cc3[C@@H](O[C@@H]3O[C@@H]5CO[C@@H](C)O[C@H]5[C@H](O)[C@H]3O)[C@H]3COC(=O)[C@H]23)OCO4)cc(OC)c1O", "note": "[etoposide]", "values": [{"measurement": "caspase 3 activation in neutrophils", "setting": "caspase 3", "value": "induced an increase in the activation of caspase 3 levels"}]}
{"smiles": "CC1(C)CCC2=C(O1)c1ccccc1C(=O)C2=O", "note": "[beta-lapachone]", "values": [{"measurement": "caspase 3 activation in neutrophils", "setting": "caspase 3", "value": "induced an increase in the activation of caspase 3 levels"}]}
{"smiles": "COc1cccc2c1C(=O)c1c(O)c3c(c(O)c1C2=O)C[C@@](O)(C(=O)CO)C[C@@H]3O[C@H]1C[C@H](N)[C@H](O)[C@H](C)O1", "note": "[doxorubicin]", "values": [{"measurement": "caspase 3 activation in neutrophils", "setting": "caspase 3", "value": "induced an increase in the activation of caspase 3 levels"}]}
